These results are taken from patent US20080220471A1, “Vectors and Methods Using Same” (Genentech, Inc., priority 2005, published 2008).

Entries after “also recorded” stand apart in the source; their conditions may differ.

For one data set, the system named is tumor. As to conditions: Teicher et al. 2002; cited from earlier work.
The subject of data set [1] is A375M-luc/shRNA-BRAF cells. Nature of the data set: A375M-luc systemic (metastatic) tumor model, survival and bioluminescence. The class given is in vivo, scid-beige mice. Particulars: 1 mg/ml Dox in drinking water (Dox-mediated BRAF knockdown); i.v. 4×10^5 A375M-luc/shRNA-BRAF cells. On the procedure:
To evaluate the efficacy of TASK121 knockdown in this model, cohorts of mice with similarly increasing tumor burden were divided into treatment groups. Scid-beige mice were injected intraperitoneally with […] 200 mg/kg D-luciferin (Biotium, Hayward, Calif.) and anesthetized using isoflurane. During image acquisition in a light-tight box, the animal was maintained on isoflurane via nose cone, and body temperature was maintained using a warming pad. Bioluminescence images were acquired using a cooled intensified charge-coupled device camera in an in vivo imaging system (Xenogen, Alameda, Calif.). Image acquisition times were about 1 minute. Images were processed by co-registering a reference image with a thresholded bioluminescence data image.
For metastatic tumor models, female scid-beige mice were injected intravenously with 50 μL PBS containing 4×10^5 A375M-luc shRNA cell clones. Tumor progression was monitored by weekly bioluminescence imaging for luciferase and mice were monitored daily for survival. At least 9 mice were used for each cohort. […] This is a promising strategy to inhibit certain metastatic tumors.

The subject of a further data set is LOX-IMVI tumors. Briefly: LOX-IMVI inducible shRNA subcutaneous xenograft. In kind it is in vivo. Particulars: for tumor growth: 2 mg/ml Dox plus 5% sucrose in drinking water, start at 100-150 mm^3. The protocol: (§1) Six- to 8-week-old female athymic nu/nu mice or scid-beige mice were purchased from Charles River Laboratories. To assay for BRAF role in subcutaneous tumor models, mice were injected in the right flank with either 3×10^6 human LOX-IMVI or 1×10^7 human A375 TASK121-shRNA containing cell clones in 200 μL phosphate-buffered saline (PBS). When tumors reached a mean volume of 100-150 mm^3 the mice with similarly sized tumors were grouped into treatment cohorts. Mice received 5% sucrose only or 5% sucrose plus 1-2 mg/ml doxycycline for control and knockdown cohorts, respectively. All water bottles were changed 3 times per week. Tumors were measured with calipers and mice weighed twice per week. Mice whose tumors reach 2000 mm^3 were euthanized. At the end of the dosing study, or as indicated, appropriate tumor samples were taken. Each treatment group consisted of 7-10 mice and results are presented as mean tumor volume ±standard deviation (FIGS. 10C-E).

The subject of another data set is BRAF. Briefly: BRAF knockdown in melanoma cell clones (immunoblot densitometry, quantitative PCR). The class given is cell-based, human. As to conditions: melanoma cell clones expressing inducible BRAF shRNA. From the text:
FIG. 10: Inducible knockdown of BRAF expression prevents melanoma tumor growth. (A). Schematic representation of a retroviral vector for tetracycline/doxycycline-inducible synthesis of shRNA. The Tet-repressor is constitutively expressed from the β-actin promoter and H1 RNA polymerase III promoter-driven transcription is thereby repressed in the absence of Dox by binding of the TetR protein to the Tet-responsive element sequence located immediately downstream of the TATA box. Addition of Dox results in dissociation of the TetR protein and derepression of the shRNA transcriptional unit. TATA, TATA box; TRE, Tet-responsive element; TetR, Tet-repressor protein; IRES, internal ribosomal entry site; PURO, puromycin resistance gene; LTR, long terminal repeat. B. Experimental validation of BRAF knockdown in melanoma cell lines. […] Lysates were then analyzed by immunoblotting. […]
We generated stable cells that expressed the inducible shRNA retroviral vector shown in FIG. 10A (based on pHUSH-GW). […] In the uninduced state, cells expressing the inducible hairpins were not altered in their baseline growth properties and no discernable background expression could be detected (data not shown). […] BRAF knockdown was reversible and time-dependent, with the maximal mRNA depletion detected 2 days post induction and the corresponding protein depletion occurring at day 3.
Background: In western blotting, separated proteins are transferred to a membrane and probed.

Another data set has as its system TetR protein. Briefly: Western analysis of TetR protein expression in transiently transfected 293T cells. In kind it is cell-based. As to conditions: transient transfection, compared to wildtype TetR coding sequence. The protocol: To confirm that codon optimization of the TetR coding region increased expression of the TetR protein, Western analysis was performed. Briefly, plasmids containing the retroviral backbone comprising either wild type TetR (WT) or the codon optimized TetR (OPT) were transiently transfected into 293T cells using lipofectin (commercially available from GIBCO-BRL, Gaithersburg, Md.). Cell lysates were prepared by addition of 50 mM HEPES pH 7.4, 100 mM NaCl, 50 mM NaF, 5 mM B-glycerophosphate, 2 mM EGTA, 1 mM Na vanadate, 1% TX100 to a cell pellet, resolved on a 4-12% acrylamide gel and transferred to a PVDF membrane. Membranes were sequentially probed with Mouse α-TetR (1:5000; MolBiTec) and Rabbit α-Tubulin-HRP (1:5000, Santa Cruz Biotech, Santa Cruz, Calif.). […] “Ev” signifies negative control using retroviral vector lacking a shRNA cassette.

The subject of data set [2] is pGL3-mu-p53 (murine p53 sequences). Briefly: Luciferase-based transient co-transfection comparing shRNA and miRNA vectors against p53. The class given is cell-based. Particulars: p53-1 sequence, higher transfection ratios. From the text: FIG. 15: Luciferase-based transient co-transfection experiments compared shRNA and miRNA inducible expression vector performance. A. Comparison of H1-shRNA and CMV-miR vectors corresponding to murine p53 sequences transfected at 7.5:1, 5:1 and 2.5:1 shRNA:pGL3-mu-p53. B. The removal of the EmGFP leader rendered miR-p53-1 non-functional at a co-transfection ratio of 10:1.
In order to compare the efficacy of shRNA versus miRNA design, two effective miRNAs directed against p53 were converted to H1-shRNAs by identifying the 21-22 nt active siRNA within the miRNA scaffold and then by converting these active siRNAs back to N19 shRNAs. In addition, we examined the effect of having a linker sequence upstream of the miRNA. The following oligonucleotides were used in this study: […]

Another data set deals with A375 tumors. Briefly: A375 inducible shRNA subcutaneous xenograft. In kind it is in vivo, athymic nu/nu mice. Particulars: 2 mg/ml Dox in drinking water. The protocol: as §1
In data set [3] the test system is pHUSH shGL3 clone B11 tumors. Nature of the data set: Tumor volume of pHUSH shGL3 clone B11 tumors at each Dox concentration. In kind it is in vivo, mice. As to conditions: luciferase-targeting shRNA. On the procedure: FIG. 6: (A) The relative change in mean bioluminescence at each time point and treatment condition (n=5 mice per doxycycline dose). […] In addition to the luciferase expression analysis, tumor volume measurements were recorded for the pHUSH shGL3 clone B11 at each concentration of doxycycline.
To determine whether Dox or shRNA expression influenced tumor growth in vivo, tumor volume measurements were recorded for the tumors at each concentration of Dox.

For the molecule `Cl.Cn1cc(C2=C(c3cn(C4CCN(Cc5ccccn5)CC4)c4ccccc34)C(=O)NC2=O)c2ccccc21` [317615-HCL], the anti-tumor effect result in the data set with tumor is on record as “anti-tumor effect”.
In data set [1], `C[C@H]1c2cccc(O)c2C(=O)C2=C(O)[C@]3(O)C(=O)C(C(N)=O)=C(O)[C@@H](N(C)C)[C@@H]3[C@@H](O)[C@@H]21` [Dox, 1-dimethylamino-2,4-a,5,7,12-pentahydroxy-11-methyl-4,6-dioxo-1,4a,11,11a,12,12a-hexahydrotetracene-3-carboxamide] had a median survival of 33.4 days. The “body weight between treatment groups” value with LOX-IMVI tumors (2 mg/ml Dox plus 5% sucrose vs 5% sucrose) is “no difference in body weight”. The “lethality or weight loss” value in the data set on LOX-IMVI tumors (2 mg/ml Dox via drinking water, LOX-IMVI and A375 xenograft experiments) is on record as “No lethality or weight loss was observed”. The “lower threshold for in vivo expression of the shRNA” value with LOX-IMVI tumors (pHUSH vector system, drinking water) is around 0.02 mg/mL. In addition, in the data set with BRAF, the “Dox IC50 for suppression of BRAF protein levels” value is “approximately 5 ng/ml”.

B1: codon optimized TetR: TetR coding region codon optimized for mammalian expression (SEQ ID NO:1) (nucleic acid)
DNA: ATGTCCAGACTGGATAAGTCCAAGGTGATTAATTCCGCTCTGGAACTCCTGAACGAGGTCGGCATCGAGGGACTGACCACACGGAAGCTGGCTCAGAAACTCGGCGTCGAACAGCCTACCCTCTACTGGCATGTCAAAAATAAGAGAGCCCTCCTGGACGCCCTGGCTATCGAGATGCTGGACAGACACCACACCCACTTCTGCCCCCTGGAAGGCGAATCCTGGCAGGATTTCCTCCGGAACAACGCTAAAAGCTTTAGATGCGCCCTCCTCAGCCATAGAGACGGAGCTAAAGTGCACCTGGGAACCCGGCCTACAGAAAAACAGTACGAGACACTGGAAAACCAGCTCGCTTTCCTCTGCCAACAAGGCTTTAGCCTGGAAAACGCCCTCTACGCTCTCAGCGCTGTCGGCCATTTTACACTGGGCTGCGTGCTCGAGGACCAGGAGCACCAAGTGGCTAAAGAGAGCGGGAAACCCCTACCACCGATAGCATGCCCCCCCTGCTGAGACAAGCCATTGAGCTCTTTGATCATCAGGGAGCTGAACCCGCCTTCCTCTTTGGACTCGAACTCATTATTTGCGGACTCGAGAAGCAACTGAAATGCGAAAGCGGAAGCGCCTACTCCGGCTCCAGAGAATTTCGGTCCTACTAG
modifications: Codon-optomized TetR
Take B1: the “expression of the TetR protein” value in the data set with TetR protein is “significantly increased expression of the TetR protein”.

B2: H1-shRNA-p53-1: H1 promoter N19 shRNA converted from the p53-1 miRNA (nucleic acid)
DNA: GATCCCCAGTACGTGCACATAACAGACTTTCAAGAGAAGTCTGTTGTGCACGTACTTTTTTTGGAAA
For the molecule B2, the “knockdown compared to CMV-miR” value in data set [2] is “slight increase in knockdown”.

B3: GFP control shRNA: EGFP shRNA (SEQ ID NO:17/18) control hairpin in pHUSH (nucleic acid)
sense: GATCCCCAGATCCGCCACAACATCGATTCAAGAGATCGATGTTGTGGCGGATCTTGTTTTTTGGAAA
antisense: AGCTTTTCCAAAAAACAAGATCCGCCACAACATCGATCTCTTGAATCGATGTTGTGGCGGATCTGGG
On to B3, for which the tumor growth entry in the data set with A375 tumors is “no discernable effect on tumor growth; also recorded: did not affect tumor growth kinetics”.

B4: Luciferase control shRNA: shRNA targeting the luciferase coding region (SEQ ID NO:9 / 15) in pHUSH (nucleic acid)
sense: GATCCCCCTTACGCTGAGTACTTCGATTCAAGAGATCGAAGTACTCAGCGTAAGTTTTTTGGAAA
antisense: AGCTTTTCCAAAAAACTTACGCTGAGTACTTCGATCTCTTGAATCGAAGTACTCAGCGTAAGGGG
Regarding B4, the “influence on tumor growth in vivo (tumor volume)” value in data set [3] was “does not influence tumor growth in vivo”. For the same molecule, the tumor growth entry in the data set with LOX-IMVI tumors was “did not affect tumor growth kinetics”; in the data set on LOX-IMVI tumors (listed as control shRNA directed against Luciferase), “continued to increase in size”.
